Laboratory results from ChEMBL document CHEMBL4622980, “Peptide Inhibitors of Bacterial Protein Synthesis with Broad Spectrum and SbmA-Independent Bactericidal Activity against Clinical Pathogens” (J Med Chem, 2020).
Each block holds one substance with its values, some of them ahead of it. Active and inactive are the calls of the source. The calls are words filed in the database; no cut-off is given here.

Tests used:
Escherichia coli [1] = assay: Induction of membrane permeabilization in Escherichia coli BW25113 at 1 uM incubated for 30 mins by ONPG/beta-galactosidase assay; assay type: functional, organism-based
Escherichia coli [2] = assay: Antibacterial activity against Escherichia coli BW25113 assessed as prevention visible bacterial growth incubated for 18 hrs; assay type: functional; conditions: BW25113, 18 h
Escherichia coli [3] = assay: Antibacterial activity against Escherichia coli clinical isolates assessed as prevention visible bacterial growth incubated for 18 hrs; assay type: functional
Staphylococcus aureus [4] = assay: Bactericidal activity against Staphylococcus aureus ATCC 25923 assessed as prevention visible bacterial growth incubated for 18 hrs; assay type: functional; conditions: ATCC 25923, 18 h
Acinetobacter baumannii [5] = assay: Bactericidal activity against Acinetobacter baumannii ATCC 19606 assessed as prevention visible bacterial growth incubated for 18 hrs; assay type: functional; conditions: ATCC 19606 = CIP 70.34 = JCM 6841, 18 h
[6] = Cytotoxicity in human MEC1 cells assessed as reduction in cell viability incubated for 20 hrs by MTT assay; assay type: cell-based
Escherichia coli [7] = assay: Antibacterial activity against Escherichia coli ATCC 25922 assessed as prevention visible bacterial growth incubated for 18 hrs in presence of 10% (v/v) human serum in full MH medium; assay type: functional; conditions: ATCC 25922, 18 h
Klebsiella pneumoniae [8] = assay: Antibacterial activity against Klebsiella pneumoniae 700603 assessed as prevention visible bacterial growth incubated for 18 hrs; assay type: functional; conditions: Klebsiella pneumoniae, 700603, 18 h
Staphylococcus aureus [9] = assay: Antibacterial activity against Staphylococcus aureus ATCC 25923 assessed as prevention visible bacterial growth incubated for 18 hrs; assay type: functional; conditions: ATCC 25923, 18 h
Acinetobacter baumannii [10] = assay: Antibacterial activity against Acinetobacter baumannii ATCC 19606 assessed as prevention visible bacterial growth incubated for 18 hrs; assay type: functional; conditions: ATCC 19606 = CIP 70.34 = JCM 6841, 18 h
Escherichia coli [11] = assay: Antibacterial activity against Escherichia coli ATCC 25922 assessed as prevention visible bacterial growth incubated for 18 hrs; assay type: functional; conditions: ATCC 25922, 18 h
Escherichia coli [12] = assay: Bactericidal activity against Escherichia coli BW25113 expressing delta sbmA mutation assessed as prevention visible bacterial growth incubated for 18 hrs; assay type: functional; conditions: BW25113, 18 h
Pseudomonas aeruginosa [13] = assay: Bactericidal activity against Pseudomonas aeruginosa ATCC 27853 assessed as prevention visible bacterial growth incubated for 18 hrs; assay type: functional; conditions: ATCC 27853, 18 h
Escherichia coli [14] = assay: Bactericidal activity against Escherichia coli BW25113 assessed as prevention visible bacterial growth incubated for 18 hrs; assay type: functional; conditions: BW25113, 18 h
Escherichia coli [15] = assay: Induction of membrane permeabilization in Escherichia coli BW25113 at 1 to 2 uM incubated for 30 mins by ONPG/beta-galactosidase assay; assay type: functional, organism-based
Escherichia coli [16] = assay: Bactericidal activity against Escherichia coli ATCC 25922 assessed as prevention visible bacterial growth incubated for 18 hrs; assay type: functional; conditions: ATCC 25922, 18 h
Pseudomonas aeruginosa [17] = assay: Antibacterial activity against Pseudomonas aeruginosa ATCC 27853 assessed as prevention visible bacterial growth incubated for 18 hrs; assay type: functional; conditions: ATCC 27853, 18 h
Klebsiella pneumoniae [18] = assay: Bactericidal activity against Klebsiella pneumoniae 700603 assessed as prevention visible bacterial growth incubated for 18 hrs; assay type: functional; conditions: Klebsiella pneumoniae, 700603, 18 h
Escherichia coli [19] = assay: Antibacterial activity against Escherichia coli BW25113 expressing delta sbmA mutation assessed as prevention visible bacterial growth incubated for 18 hrs; assay type: functional; conditions: BW25113, 18 h
Escherichia coli [20] = assay: Induction of membrane permeabilization in Escherichia coli BW25113 at 1 to 16 uM incubated for 30 mins by propidium iodide uptake based flow cytometry; assay type: functional, organism-based
Escherichia coli [21] = assay: Induction of membrane permeabilization in Escherichia coli BW25113 at 1 to 16 uM incubated for 30 mins by ONPG/beta-galactosidase assay; assay type: functional, organism-based
Escherichia coli [22] = assay: Ratio of MIC for antibacterial activity against Escherichia coli BW25113 expressing delta sbmA mutation to MIC for antibacterial activity against wild type Escherichia coli BW25113; assay type: functional
Escherichia coli [23] = assay: Inhibition of in-vitro transcription/translation in Escherichia coli lysates at 1 uM incubated for 1 hr by luciferase reporter gene assay relative to control; assay type: functional
Escherichia coli [24] = assay: Ratio of MBC for antibacterial activity against Escherichia coli BW25113 expressing delta sbmA mutation to MBC for antibacterial activity against wild type Escherichia coli BW25113; assay type: functional

Substance: COLISTIN
Activity (Escherichia coli [1]): Active

Substance: H-RRIRPRPPRLPPPRPR-OH
MIC99 (Escherichia coli [2]): 32 µM

Substance: H-RRIRPRPPRLPRARPR-OH
MIC99 (Escherichia coli [2]): 16 µM

Substance: H-RRIRPRPPRLPRFRPR-OH
MIC99 (Escherichia coli [2]): 8 µM

Substance: H-RRIRPRPPRLPRPAPR-OH
MIC99 (Escherichia coli [2]): 32 µM

Substance: H-RRIRPRPPRLPRPEPR-OH
MIC99 (Escherichia coli [2]): 64 µM

Substance: H-RRIRPRPPRLPRPFPR-OH
MIC99 (Escherichia coli [2]): 8 µM

Substance: H-RRIRPRPPRLPRPGPR-OH
MIC99 (Escherichia coli [2]): 32 µM

Substance: H-RRIRPRPPRLPRPRAR-OH
MIC99 (Escherichia coli [2]): 8 µM

Substance: H-RRIRPRPPRLPRPRFR-OH
MIC99 (Escherichia coli [2]): 8 µM

Substance: H-RRIRPRPPRLPRPRGR-OH
MIC99 (Escherichia coli [2]): 16 µM

Substance: H-RRIRPRPPRLPRPRPA-OH
MIC99 (Escherichia coli [2]): 16 µM

Substance: H-RRIRPRPPRLPRPRPE-OH
MIC99 (Escherichia coli [2]): 64 µM

Substance: H-RRIRPRPPRLPRPRPP-OH
MIC99 (Escherichia coli [2]): 32 µM

Substance: H-RRIRPRPPRLPRPRPR-OH
MIC99 (Escherichia coli [2]): 2 to 8 µM | MIC99 (Escherichia coli [3]): > 1 µM | MBC (Staphylococcus aureus [4]): > 64 µM | MBC (Acinetobacter baumannii [5]): > 64 µM | CC50 at 20 h [6]: > 64 µM | MIC (Escherichia coli [7]): 1 µM | MIC99 (Klebsiella pneumoniae [8]): 4 µM | MIC99 (Staphylococcus aureus [9]): > 64 µM | MIC99 (Acinetobacter baumannii [10]): 32 µM | MIC99 (Escherichia coli [11]): 1 µM | MBC (Escherichia coli [12]): 64 µM | MBC (Pseudomonas aeruginosa [13]): > 64 µM | MBC (Escherichia coli [14]): 4 µM | Activity (Escherichia coli [15]): inactive | MBC (Escherichia coli [16]): 2 µM | MIC99 (Pseudomonas aeruginosa [17]): > 64 µM | MBC (Klebsiella pneumoniae [18]): 64 µM | MIC99 (Escherichia coli [19]): 16 µM

Substance: H-RRIRPRPPRLPRPRPW-OH
MIC99 (Escherichia coli [2]): 8 µM

Substance: H-RRIRPRPPRLPRPRRR-OH
MIC99 (Escherichia coli [2]): 16 µM

Substance: H-RRIRPRPPRLPRPRSR-OH
MIC99 (Escherichia coli [2]): 16 µM

Substance: H-RRIRPRPPRLPRPRWR-OH
MIC99 (Escherichia coli [2]): 1 to 4 µM | Activity (Escherichia coli [20]): inactive | MIC99 (Escherichia coli [3]): > 1 µM | MBC (Staphylococcus aureus [4]): > 64 µM | MBC (Acinetobacter baumannii [5]): 24 µM | Activity (Escherichia coli [21]): inactive | CC50 at 20 h [6]: > 64 µM | Ratio (Escherichia coli [22]): 2 - 4 | MIC (Escherichia coli [7]): 1.5 µM | MIC99 (Klebsiella pneumoniae [8]): 2 µM | MIC99 (Staphylococcus aureus [9]): > 64 µM | MIC99 (Acinetobacter baumannii [10]): 12 µM | MIC99 (Escherichia coli [11]): 1 µM | MBC (Escherichia coli [12]): 16 µM | MBC (Pseudomonas aeruginosa [13]): 32 µM | inhibition (Escherichia coli [23]): Active | MBC (Escherichia coli [14]): 8 µM | Activity (Escherichia coli [15]): inactive | Ratio (Escherichia coli [24]): 2 - 4 | MBC (Escherichia coli [16]): 2 µM | MIC99 (Pseudomonas aeruginosa [17]): > 64 µM | MBC (Klebsiella pneumoniae [18]): 16 µM | MIC99 (Escherichia coli [19]): 4 µM

Substance: H-RRIRPRPPRLPRRRPR-OH
MIC99 (Escherichia coli [2]): 8 µM

Substance: H-RRIRPRPPRLPRSRPR-OH
MIC99 (Escherichia coli [2]): 16 µM

Substance: H-RRIRPRPPRLPSPRPR-OH
MIC99 (Escherichia coli [2]): 16 µM

Now from value to substance:

MIC99 (Escherichia coli [2]): 64 µM
Substance: H-RRIRPRPPRLPRERPR-OH

MIC99 (Escherichia coli [2]): 16 µM
Substance: H-RRIRPRPPRLPRGRPR-OH

MIC99 (Escherichia coli [2]): 32 µM
Substance: H-RRIRPRPPRLPRPPPR-OH

MIC99 (Escherichia coli [2]): 32 µM
Substance: H-RRIRPRPPRLPRPRER-OH

MIC99 (Escherichia coli [2]): 8 µM
Substance: H-RRIRPRPPRLPRPRPF-OH

MIC99 (Escherichia coli [2]): 16 µM
Substance: H-RRIRPRPPRLPRPRPG-OH

MIC99 (Escherichia coli [2]): 16 µM
Substance: H-RRIRPRPPRLPRPRPS-OH

MIC99 (Escherichia coli [2]): 32 µM
Substance: H-RRIRPRPPRLPRPSPR-OH

MIC99 (Escherichia coli [2]): 4 µM
Substance: H-RRIRPRPPRLPRPWPR-OH

MIC99 (Escherichia coli [2]): 2 µM
Substance: H-RRIRPRPPRLPRWRPR-OH
